The target of this test is T1, UGT93Y1 (Camellia sinensis, UniProt A0A4S4F2U3).
T1 construct: gene TEA_008645; UGT 467 aa, fusion about 80 kDa; His29, Asp134, PSPG box Trp342-Gln385, TSS 413-415
The experiment in a line: UDP Glo glycosyltransferase assay. In kind it is biochemical. The note with it: UDP-glucose as donor; 30 °C; 0-1000 µM menthol; kinetic fit with substrate inhibition, two-site sequential model with identical dissociation constants.

T1 sequence (A0A4S4F2U3 entry or part of it): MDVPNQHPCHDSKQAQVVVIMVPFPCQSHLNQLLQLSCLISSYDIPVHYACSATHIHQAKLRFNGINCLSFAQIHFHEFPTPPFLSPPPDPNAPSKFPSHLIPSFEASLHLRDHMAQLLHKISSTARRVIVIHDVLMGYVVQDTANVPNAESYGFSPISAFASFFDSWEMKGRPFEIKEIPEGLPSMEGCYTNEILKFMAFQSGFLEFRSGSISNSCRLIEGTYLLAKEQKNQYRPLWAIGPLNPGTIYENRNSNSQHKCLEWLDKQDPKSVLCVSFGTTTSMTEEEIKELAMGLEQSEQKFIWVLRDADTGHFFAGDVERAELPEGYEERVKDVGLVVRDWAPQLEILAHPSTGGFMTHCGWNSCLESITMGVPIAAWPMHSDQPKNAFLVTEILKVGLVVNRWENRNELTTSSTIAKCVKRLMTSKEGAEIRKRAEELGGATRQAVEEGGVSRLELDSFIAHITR

`CC1CCC(C(C)C)C(O)C1` (racemic) [(±)-menthol]: binding was put at a Kd of 453 µM.

For orientation: Kd means the equilibrium constant for the complex coming apart.

(Values after paper PMC8470988, “Glucosylation of (±)-Menthol by Uridine-Diphosphate-Sugar Dependent Glucosyltransferases from Plants” (Molecules, 2021).)
